In ChEMBL document CHEMBL5727861, “Compounds and methods for the enhanced degradation of targeted proteins” (2020):

Molecular target: von Hippel-Lindau disease tumor suppressor (Homo sapiens, UniProt P40337)
Experiment: Compounds were transferred from the stock plate to the assay plate and diluted into running buffer containing no DMSO. All compounds were run as a six-concentration series with a final assay top concentration of 100 uM. Data analysis was performed in Scrubber 2 (BioLogic software, Campbell, Australia). Blanks were subtracted and data was corrected for DMSO using a standard DMSO curve.

von Hippel-Lindau disease tumor suppressor, sequence (P40337 whole entry): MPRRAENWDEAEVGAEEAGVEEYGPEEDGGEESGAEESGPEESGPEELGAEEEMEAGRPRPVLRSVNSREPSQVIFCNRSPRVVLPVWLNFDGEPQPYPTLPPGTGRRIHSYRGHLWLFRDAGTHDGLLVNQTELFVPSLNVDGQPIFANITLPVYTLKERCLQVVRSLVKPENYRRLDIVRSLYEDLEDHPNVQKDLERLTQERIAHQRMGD

- Kd: 13 µM
Structure (SMILES): COc1cc([C@H](C(=O)N2C[C@H](O)C[C@H]2C(=O)NCc2ccc(-c3scnc3C)cc2)C(C)C)on1
